PMC5738391, “Three classes of ligands each bind to distinct sites on the orphan G protein-coupled receptor GPR84” (Scientific Reports, 2017)

What was measured:
[1] = biological target: GPR84-Cys^352Ile Gαi2 fusion protein (Homo sapiens, UniProt Q9NQS5); assay: [35S]GTPγS binding, membranes expressing pertussis toxin-resistant GPR84-Cys352Ile Gαi2 fusion; operational model of allosteric modulation; format: biochemical; conditions: for measured potency compared between GPR84-Gαi2 and GPR84-Cys352Ile Gαi2 fusion constructs: [35S]GTPγS binding
Method: The only previous study[3] designed to explore the mode of binding of ligands to GPR84 employed a fusion protein[31],[32] in which the G protein Gαi1 was linked in-frame to the C-terminal tail of GPR84.
(§1) Membranes were generated from Flp-In T-REx HEK293 cells treated with 100 ng/mL doxycycline to induce expression of the receptor construct of interest. Cells were washed with ice-cold phosphate-buffered saline, removed from dishes by scraping and centrifuged at 3000 rpm for 5 min at 4 °C. Pellets were resuspended in TE buffer (10 mM Tris-HCl, 0.1 mM EDTA; pH 7.5) containing a protease inhibitor mixture (Roche Applied Science, West Sussex, UK) and homogenized with a 5 ml hand-held homogenizer. This material was centrifuged at 1500 rpm for 5 min at 4 °C and the supernatant was further centrifuged at 50000 rpm for 45 min at 4 °C. The resulting pellet was resuspended in TE buffer and protein content was assessed using a BCA protein assay kit (Pierce, Fisher Scientific, Loughborough, UK).
(§2) The reaction was then initiated with addition of [^35S]GTPγS (50 nCi per tube), and the reaction was terminated after 45 minutes incubation at 30 °C by rapid filtration through GF/C glass filters using a 24-well Brandel cell harvester (Alpha Biotech, Glasgow, UK). […] Dried filters were added to 3 mL of Ultima Gold^TM XR (PerkinElmer Life Sciences, Beaconsfield, UK) and [^35S]GTPγS binding was determined by liquid scintillation spectrometry.
To quantify the extent of allosteric interaction between pairs of ligands, data were analysed using an operational model of allosteric modulation described previously. The general version of this model can be depicted by the following equation: E=Em(τA[A](KB+αβ[B])+τB[B]KA)^n/([A]KB+KAKB+[B]KA+α[A][B])^n+(τA[A](KB+αβ[B])+τB[B]KA)^n where, E is the pharmacological effect, [A] and [B] are the orthosteric and allosteric compound concentrations at equilibrium, respectively; KA and KB are the equilibrium dissociation constants of the orthosteric and allosteric ligands respectively, denoting the binding affinities of the two ligands to the receptor; α is the binding cooperativity factor denoting the magnitude and direction of the allosteric effect on binding affinity of the orthosteric agonist to the receptor, β is the activation cooperativity factor representing the measure of the allosteric effect on orthosteric efficacy. τA and τB represent the intrinsic activity of the orthosteric and allosteric ligand, respectively. Em is the maximal possible system response and n denotes the slope factor of the transducer function. In case of global fitting of the allosterism data through this equation, Em and n values were always constrained and other parameters (KA, KB,τA, τB, α, β) were estimated.

[2] = system: GPR84-Gαi2 fusion protein; assay: [35S]GTPγS binding, membranes expressing GPR84-Gαi2 fusion protein; format: biochemical, human; conditions: for direct agonism of GPR84, [35S]GTPγS binding: DIM analogs; for allosteric effect on concentration-response curves of orthosteric agonists incl. compound-1: increasing concentrations of analog
From the text: The only previous study[3] designed to explore the mode of binding of ligands to GPR84 employed a fusion protein[31],[32] in which the G protein Gαi1 was linked in-frame to the C-terminal tail of GPR84. […] These studies indicate that following pertussis toxin treatment of cells expressing the GPR84-Cys^352Ile Gαi2 fusion protein all agonist-induced binding of [^35S]GTPγS reflects incorporation of nucleotide into the receptor-linked G protein α subunit.
as §1
(§3) Initially, 5 μg of generated membrane protein was pre-incubated for 15 min at 25 °C in assay buffer (20 mM HEPES, 5 mM MgCl2; 160 mM NaCl; 1 μM GDP; 0.05% fatty acid-free bovine serum albumin; pH 7.5) containing the indicated ligand concentrations. […] The reaction was then initiated with addition of [^35S]GTPγS (50 nCi per tube), and the reaction was terminated after 45 minutes incubation at 30 °C by rapid filtration through GF/C glass filters using a 24-well Brandel cell harvester (Alpha Biotech, Glasgow, UK). Unbound radioligand was removed from filters by three washes with ice-cold phosphate buffered saline (pH 7.4) and filters were dried for 2–3 h at room temperature. Dried filters were added to 3 mL of Ultima Gold^TM XR (PerkinElmer Life Sciences, Beaconsfield, UK) and [^35S]GTPγS binding was determined by liquid scintillation spectrometry.

[3] = biological target: T1, human GPR84 (FLAG-hGPR84-eYFP) (Homo sapiens, UniProt Q9NQS5); assay: [35S]GTPγS binding, membranes of cells expressing FLAG-hGPR84-eYFP; format: biochemical
T1 construct: expressed in transfected cells
Method: as §1, §2
All data are presented as means ± SEM of at least three independent experiments. Data analysis and curve fitting was carried out using the GraphPad Prism software package version 5.0b (GraphPad, San Diego). […] In case of inhibition experiments with antagonists an equivalent analysis was followed to fit an inverse sigmoidal curve. To perform the statistical analysis of curve parameters, data from multiple experiments were fitted independently and resulting curve fit values were analysed with indicated tests. For radioligand binding data, saturation binding curves were generated by fitting the specific binding, which was obtained by subtracting non-specific from total binding, to a one site specific binding model that allows calculation of Kd values for the radioligand at wild type and mutant receptors. To determine affinity of unlabelled ligands, data obtained in displacement assays were fit to an inverse three parameter sigmoidal curve constrained by radioligand affinity and concentration to allow for Ki calculation.

[4] = biological target: T2, Arg^172Ala GPR84-Cys^352Ile Gαi2 fusion protein (Homo sapiens, UniProt Q9NQS5, R172A); assay: [35S]GTPγS binding, Arg172Ala mutant fusion protein; format: biochemical
T2 construct: Cys352Ile Gαi2 (fusion partner, same polypeptide); expressed in transfected cells; host or cells: membranes of Flp-In T-REx 293 cells, doxycycline-induced
From the text: To try to identify how a MCFA might interact with GPR84 we turned to homology modelling studies. Although GPR84 is not closely related to the other GPCRs that respond to either short chain (FFA2, FFA3) or long chain (FFA1, FFA4) fatty acids[8],[9], in each of the other cases the carboxylate of the fatty acid is co-ordinated by one or more arginine residues located at or near the extracellular surface[12]–[14]. […] As we have highlighted recently[9] GPR84 and the β2-adrenoceptor are only distantly related whilst, of the currently available atomic level GPCR structures, the orexin OX1 receptor[34] has highest overall sequence identity (31%) with GPR84. We, therefore, generated and employed a new homology model of GPR84 based on the transmembrane domain architecture of the OX1 receptor (Fig. 6). However, because ECL2 of GPR84 is very similar in sequence to that of rhodopsin (Fig. 6a), with 43% residue identity over this region, we incorporated this knowledge into the modelling process. In the resulting hybrid model (Fig. 6a) Arg^172 within ECL2 is pointing into the potential binding cavity within the helical bundle. This was not the case when Nikaido et al.,[3] employed the β2-adrenoceptor-based model, probably because the ECL2 sequences of the β2-adrenoceptor and GPR84 have no relatedness. […] To assess this we mutated Arg^172 to Ala within the setting of the GPR84-Cys^352Ile Gαi2 fusion protein. […] Equivalent results were obtained in studies in which the Arg^172Ala mutation was introduced into the FLAG-hGPR84-eYFP construct (Fig. 7b).
FLAG-humanGPR84-Gαi2 fusion proteins were constructed by replacing eYFP within the FLAG-humanGPR84-eYFP-pcDNA5/FRT/TO construct with sequence corresponding to Gαi2 or Cys^352Ile Gαi2 using NotI and XhoI restriction enzymes. Site-directed mutagenesis to generate point mutants of GPR84 was performed according to the QuikChange method (Stratagene, Cheshire, UK). The identity of all constructs was verified by nucleotide sequencing.
as §3

[5] = biological target: T3, Arg^172Lys GPR84-Cys^352Ile Gαi2 fusion protein (Homo sapiens, UniProt Q9NQS5, R172K); assay: [35S]GTPγS binding, Arg172Lys mutant fusion protein; format: biochemical
T3 construct: Cys352Ile Gαi2 (fusion partner, same polypeptide); expressed in transfected cells; host or cells: membranes of Flp-In T-REx 293 cells, doxycycline-induced

[6] = biological target: T4, FLAG-Arg^174Ala hGPR84-eYFP (Homo sapiens, UniProt Q9NQS5, R174A); assay: [35S]GTPγS binding, Arg174Ala mutant receptor; format: biochemical
T4 construct: expressed in transfected cells; host or cells: membranes of Flp-In T-REx 293 cells, doxycycline-induced

[7] = agonist 3a, modulator compound-1
[8] = agonist compound-1, modulator 3a

Sequence of GPR84-Cys^352Ile Gαi2 fusion protein (Q9NQS5 whole entry, the tested form may be a part): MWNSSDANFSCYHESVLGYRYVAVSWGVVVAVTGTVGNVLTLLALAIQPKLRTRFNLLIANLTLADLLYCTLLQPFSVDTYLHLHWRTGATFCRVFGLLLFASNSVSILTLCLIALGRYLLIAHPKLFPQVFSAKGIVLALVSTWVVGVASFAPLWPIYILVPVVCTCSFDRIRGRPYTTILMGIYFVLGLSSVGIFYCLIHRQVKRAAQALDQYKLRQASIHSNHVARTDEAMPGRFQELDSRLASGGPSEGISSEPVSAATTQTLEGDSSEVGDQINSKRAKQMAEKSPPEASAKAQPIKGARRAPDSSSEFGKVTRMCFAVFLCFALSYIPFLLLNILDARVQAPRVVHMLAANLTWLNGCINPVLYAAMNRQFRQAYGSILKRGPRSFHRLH
Sequence of GPR84-Cys^352Ile Gαi2 fusion protein (P04899 2-355 C352I, further chain): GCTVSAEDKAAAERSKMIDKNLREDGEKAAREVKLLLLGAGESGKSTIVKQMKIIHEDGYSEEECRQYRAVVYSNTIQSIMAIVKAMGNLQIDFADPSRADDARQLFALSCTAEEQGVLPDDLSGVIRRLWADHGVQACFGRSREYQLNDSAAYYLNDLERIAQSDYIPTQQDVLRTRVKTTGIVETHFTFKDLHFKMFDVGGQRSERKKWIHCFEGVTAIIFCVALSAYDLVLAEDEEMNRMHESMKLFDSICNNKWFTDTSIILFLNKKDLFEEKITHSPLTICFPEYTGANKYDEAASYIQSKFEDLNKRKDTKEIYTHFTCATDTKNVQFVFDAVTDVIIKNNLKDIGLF
T1 sequence (Q9NQS5 whole entry): as the sequence (Q9NQS5 whole entry, the tested form may be a part) above
T2 sequence (Q9NQS5 2-396 R172A): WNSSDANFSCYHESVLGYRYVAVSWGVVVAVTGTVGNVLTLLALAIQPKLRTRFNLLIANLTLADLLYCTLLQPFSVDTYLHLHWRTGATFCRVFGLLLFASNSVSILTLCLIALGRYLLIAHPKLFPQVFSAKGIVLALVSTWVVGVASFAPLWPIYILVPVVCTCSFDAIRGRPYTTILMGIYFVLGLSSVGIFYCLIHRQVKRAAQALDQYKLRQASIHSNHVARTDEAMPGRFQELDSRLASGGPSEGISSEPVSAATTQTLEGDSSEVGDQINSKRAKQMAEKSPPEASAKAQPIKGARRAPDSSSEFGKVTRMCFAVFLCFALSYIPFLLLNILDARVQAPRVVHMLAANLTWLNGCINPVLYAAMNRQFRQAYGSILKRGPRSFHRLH
T3 sequence (Q9NQS5 2-396 R172K): as the sequence (Q9NQS5 2-396 R172A) above, with A171K counted along it
T4 sequence (Q9NQS5 whole entry R174A): as the sequence (Q9NQS5 whole entry, the tested form may be a part) above, with R174A counted along it

Compound: COc1ccc2[nH]cc(Cc3c[nH]c4ccc(OC)cc34)c2c1 [3a]
- logα [1, 7]: 1.43 ± 0.08
- logβ [1, 7]: 1.2 ± 0.06
- Kd ([1]; pKA (estimated for the agonist), agonist 3a, modulator compound-1): 14.8 µM
- Kb ([1]; pKB (estimated for the modulator), modulator 3a, agonist compound-1): 10 µM
- direct agonism of GPR84, [35S]GTPγS binding [2]: direct agonism
- allosteric effect on concentration-response curves of orthosteric agonists incl. compound-1 [2]: as large positive allosteric effects on the potency of the orthosteric agonist ligands as did DIM

Compound: 2-((S)-1-[1,4]dioxan-2-ylmethoxy)-9-(tetrahydro-pyran-4-yl-methoxymethyl)-6,7-dihydro-pyrimido[6,1-a]isoquinolin-4-one [Compound 161]
- ability to limit [35S]GTPγS binding induced by EC80 concentrations of C10 (50 μM), embelin (3 μM) and DIM (5 μM) [3]: in a concentration-dependent fashion

Compound: CCCCCCCCCCCC1=C(O)C(=O)C=C(O)C1=O [embelin, 2,5-dihydroxy-3-undecyl-2,5-cyclohexadiene-1,4-dione]
- measured potency compared between GPR84-Gαi2 and GPR84-Cys352Ile Gαi2 fusion constructs [1]: indistinguishable
- logα ([1]; agonist embelin, modulator DIM): 1.22 ± 0.05
- logβ ([1]; agonist embelin, modulator DIM): 0.8 ± 0.02
- agonist response at Arg172Ala mutant [4]: no response
- agonist response at Arg172Lys mutant [5]: eliminated response
- effect of Arg174Ala mutation on agonist function or potency [6]: did not affect function or potency

Compound: CCCCCCSc1nc(O)cc(O)n1 [compound-1, 2-(hexylthiol)pyridimine-4,6 diol]
- measured potency compared between GPR84-Gαi2 and GPR84-Cys352Ile Gαi2 fusion constructs [1]: indistinguishable
- logα [1, 8]: 1.75 ± 0.05
- logβ [1, 8]: -0.1 ± 0.02
- logβ ([1]; agonist compound-1, modulator DIM): -0.2 ± 0.05
- logα ([1]; agonist compound-1, modulator DIM, operational model of allosterism): 2.1 ± 0.07
- agonist response at Arg172Ala mutant [4]: no response
- agonist response at Arg172Lys mutant [5]: eliminated response
- effect of Arg174Ala mutation on agonist function or potency [6]: did not affect function or potency

Compound: O=c1nc(OCC2COCCO2)cc2n1CCc1cc(C#CCNc3ccccc3)ccc1-2 (stereo not shown) [Compound 107, 2-([1,4]dioxan-2-ylmethoxy)-9-(3-phenylamino-prop-1-ynyl)-6,7-dihydro-pyrimido[6,1-a]isoquinolin-4-one]
- ability to limit [35S]GTPγS binding induced by EC80 concentrations of C10 (50 μM), embelin (3 μM) and DIM (5 μM) [3]: more potent than 161
- mode of blockade of DIM agonism ([3]; higher antagonist concentrations reduced maximal effect of DIM): non-competitive mode of blockade
- mode of blockade of embelin effects ([3]; increasing concentrations of antagonist decreased maximal effect of embelin): non-competitive manner
- potency to block DIM-stimulated [35S]GTPγS binding, Arg172Ala versus GPR84-Cys352Ile Gαi2 fusion [4]: equal potency

Compound: COc1ccc2[nH]cc(C(c3cc(F)cc(F)c3)c3c[nH]c4ccc(OC)cc34)c2c1 [3c]
- affinity for GPR84 (words, inferred from functional data) [2]: lack affinity
- direct agonism of GPR84, [35S]GTPγS binding [2]: inactive
- allosteric effect on concentration-response curves of orthosteric agonists incl. compound-1 [2]: unable to effect the position of the concentration-response curves

Compound: O=[N+]([O-])c1ccc2[nH]cc(Cc3c[nH]c4ccc([N+](=O)[O-])cc34)c2c1 [6a]
- direct agonism of GPR84, [35S]GTPγS binding [2]: direct agonism

Compound: CCCCCCCCCC(=O)OC [methyl decanoate]
- agonist activity, [35S]GTPγS binding ([3]; membranes of doxycycline-induced cells): completely inactive

Compound: COc1ccc2[nH]cc(C(c3ccc(C)cc3)c3c[nH]c4ccc(OC)cc34)c2c1 [3b]
- direct agonism of GPR84, [35S]GTPγS binding [2]: inactive
